What was measured:
[1] = Nitrogen gas substitution test: DHNA content during preservation of DHNA-containing vegetable drink; assay type: physicochemical; conditions: vegetable drink with ascorbic acid; nitrogen bubbled until dissolved oxygen 5 ppm; pasteurized 140° C. 3 seconds; ordinary temperature (25° C.) preservation, 2 months
Procedure: (§1) A 5 ml portion of each sample was passed through a solid phase extraction column (Oasis HLB, manufactured by Waters Corporation) conditioned with 5 ml of methanol and 4 ml of 1% (w/v) sodium ascorbate aqueous solution. After washing with 5 ml of an aqueous solution of 1% (w/v) sodium ascorbate and elution with 4 ml of an aqueous solution of 10% (w/v) sodium ascorbate/methanol (1:9), the thus obtained eluate was concentrated under reduced pressure. A 1 ml portion thereof was sampled and filled up with the aforementioned sodium ascorbate-containing methanol. The mixture was filtered through a 0.5 μm filter and subjected to HPLC (column: Cadenza CD-C18 (4.6×150 mm, manufactured by Imtact Corporation), mobile phase: acetonitrile, methanol, water and acetic acid (10:20:200:0.1, vol/vol/vol/vol, adjusted to pH 7 with aqueous ammonia), detector: UV detector, detection wavelength: 254 nm, flow rate: 1.5 ml/min, column temperature: 45° C., sample injection: 20 μl). A calibration curve was prepared by preparing a 1 mg/ml (methanol solution) standard stock solution of a DHNA preparation (046-22422, manufactured by Wako Pure Chemical Industries, Ltd.) and using the solution after optionally diluting with methanol. […]

[2] = Nitrogen gas substitution test: DHNA content during preparation and preservation of DHNA-containing plain yogurt; assay type: physicochemical
Procedure: as §1, with “μl).” for “μl). A calibration curve was prepared by preparing a 1 mg/ml (methanol solution) standard stock solution of a DHNA preparation (046-22422, manufactured by Wako Pure Chemical Industries, Ltd.) and using the solution after optionally diluting with methanol.”
The DHNA content contained in the plain yogurt was measured in accordance with the aforementioned test example, at respective steps of before pasteurization of the mix, after pasteurization of the same, just after inoculation of the bulk starter and completion of the fermentation, and after the lapse of the preservation for 1 week and 2 weeks, according to the production of plain yogurt of this Example.

DHNA content after heat pasteurization in comparison with the content before heat pasteurization ([2]; control plain yogurt mix without nitrogen gas bubbling (dissolved oxygen about 10 ppm), heating at 95° C. for 5 minutes): about 30%
loss of DHNA during the preparation and preservation ([2]; plain yogurt mix bubbled with nitrogen gas (dissolved oxygen less than 1 ppm), pasteurized 95° C. 5 minutes, fermented 43° C. 4 hours, preserved in the dark at 10° C. for 2 weeks): almost completely inhibited
Structure (SMILES): O=C(O)c1cc(O)c2ccccc2c1O [DHNA, 1,4-dihydroxy-2-naphthoic acid]
reduction of the DHNA content during preservation [1]: can be inhibited for a prolonged period of time
